In US6638973B2, “Taxane formulations” (FSU Research Foundation, Inc., priority 2000, dated 2003):
Like-named read-outs stand apart in the source and are kept apart here.

Test system: HCT116 cells
Assay: In vitro cytotoxicity measured by the cell colony formation assay
Type: cell-based
Settings: colonies counted after 7 days, read-out: IN VITRO ID 50 (nm) HCT116
How it was run: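 Colony-forming survival was scored 7 days after a 72 h, 37 °C compound exposure followed by washout into fresh medium.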

[1] = HCT116 cells, 72 h incubation with drug, ID50 = drug concentration producing 50% inhibition of colony formation
[2] = HCT116 colony formation, 72 h drug incubation, Example 10, C-10 ester/C-7 hydroxy taxanes
[3] = HCT116 colony formation, 72 h drug incubation, Example 5, C-7 ester/C-10 hydroxy taxanes

Row | Structure (SMILES) | IC50 [1] | IC50 [2] | further results
1 | CCOC(=O)O[C@H]1C(=O)[C@@]2(C)C([C@H](OC(=O)c3ccccc3)[C@]3(O)C[C@H](OC(=O)[C@H](O)[C@@H](NC(=O)c4cccs4)c4cccs4)C(C)=C1C3(C)C)[C@]1(OC(C)=O)CO[C@@H]1C[C@@H]2O (stereo partly shown) [Compound 3020] | < 1 nM |  | 
2 | CCOC(=O)O[C@H]1C(=O)[C@@]2(C)C([C@H](OC(=O)c3ccccc3)[C@]3(O)C[C@H](OC(=O)[C@H](O)[C@@H](NC(=O)OC(C)(C)C)C4CC4)C(C)=C1C3(C)C)[C@]1(OC(C)=O)CO[C@@H]1C[C@@H]2O (stereo partly shown) [Compound 5171] | < 1 nM |  | 
3 | C/C=C/C(=O)O[C@H]1C(=O)[C@@]2(C)C([C@H](OC(=O)c3ccccc3)[C@]3(O)C[C@H](OC(=O)[C@H](O)[C@@H](NC(=O)OC(C)(C)C)c4ccc([N+](=O)[O-])cc4)C(C)=C1C3(C)C)[C@]1(OC(C)=O)CO[C@@H]1C[C@@H]2O (stereo partly shown) [Compound 2439] |  | < 10 nM | 
4 | C/C=C/C(=O)N[C@@H](c1ccoc1)[C@@H](O)C(=O)O[C@H]1C[C@@]2(O)[C@@H](OC(=O)c3ccccc3)C3[C@](C)(C(=O)[C@H](O)C(=C1C)C2(C)C)[C@@H](OC(=O)CC)C[C@H]1OC[C@@]31OC(C)=O (stereo partly shown) [Compound 4898] |  |  | IC50 [3]: < 1 nM
5 | COC(=O)O[C@H]1C[C@H]2OC[C@@]2(OC(C)=O)C2[C@H](OC(=O)c3ccccc3)[C@]3(O)C[C@H](OC(=O)[C@H](O)[C@H](C=C(C)C)NC(=O)OCC(C)C)C(C)=C([C@@H](O)C(=O)[C@@]21C)C3(C)C (stereo partly shown) [Compound 4644] | < 10 nM |  | 
6 | CCOC(=O)O[C@H]1C(=O)[C@@]2(C)C([C@H](OC(=O)c3ccccc3)[C@]3(O)C[C@H](OC(=O)[C@H](O)[C@@H](NC(=O)OC(C)(C)C)c4cccnc4)C(C)=C1C3(C)C)[C@]1(OC(C)=O)CO[C@@H]1C[C@@H]2O (stereo partly shown) [Compound 1808] | < 10 nM |  | 
7 | CC(=O)O[C@@]12CO[C@@H]1C[C@H](O)[C@@]1(C)C(=O)[C@H](OC(=O)C3CC3)C3=C(C)[C@@H](OC(=O)[C@H](O)[C@@H](NC(=O)C=C(C)C)c4cccs4)C[C@@](O)([C@@H](OC(=O)c4ccccc4)C12)C3(C)C (stereo partly shown) [Compound 4329] |  | < 1 nM | 
8 | CCOC(=O)N[C@@H](c1ccco1)[C@@H](O)C(=O)O[C@H]1C[C@@]2(O)[C@@H](OC(=O)c3ccccc3)C3[C@](C)(C(=O)[C@H](OC(=O)C4CC4)C(=C1C)C2(C)C)[C@@H](O)C[C@H]1OC[C@@]31OC(C)=O (stereo partly shown) [Compound 3677] |  | < 1 nM | 
9 | CCC(=O)O[C@H]1C(=O)[C@@]2(C)C([C@H](OC(=O)c3ccccc3)[C@]3(O)C[C@H](OC(=O)[C@H](O)[C@H](C=C(C)C)NC(=O)OCC(C)C)C(C)=C1C3(C)C)[C@]1(OC(C)=O)CO[C@@H]1C[C@@H]2O (stereo partly shown) [Compound 5065] |  | < 10 nM | 
10 | CCOC(=O)O[C@H]1C(=O)[C@@]2(C)C([C@H](OC(=O)c3ccccc3)[C@]3(O)C[C@H](OC(=O)[C@H](O)[C@@H](NC(=O)OCC(C)C)c4cccs4)C(C)=C1C3(C)C)[C@]1(OC(C)=O)CO[C@@H]1C[C@@H]2O (stereo partly shown) [Compound 3003] | < 10 nM |  | 
11 | CCOC(=O)O[C@H]1C[C@H]2OC[C@@]2(OC(C)=O)C2[C@H](OC(=O)c3ccccc3)[C@]3(O)C[C@H](OC(=O)[C@H](O)[C@H](C=C(C)C)NC(=O)OCC(C)C)C(C)=C([C@@H](O)C(=O)[C@@]21C)C3(C)C (stereo partly shown) [Compound 4688] | < 10 nM |  | 
12 | CCCC(=O)N[C@@H](c1ccco1)[C@@H](O)C(=O)O[C@H]1C[C@@]2(O)[C@@H](OC(=O)c3ccccc3)C3[C@](C)(C(=O)[C@H](OC(=O)CCC)C(=C1C)C2(C)C)[C@@H](O)C[C@H]1OC[C@@]31OC(C)=O (stereo partly shown) [Compound 3222] |  | < 1 nM | 
13 | CCCC(=O)O[C@H]1C(=O)[C@@]2(C)C([C@H](OC(=O)c3ccccc3)[C@]3(O)C[C@H](OC(=O)[C@H](O)[C@@H](NC(=O)OC(C)(C)C)c4ccsc4)C(C)=C1C3(C)C)[C@]1(OC(C)=O)CO[C@@H]1C[C@@H]2O (stereo partly shown) [Compound 1011] |  | < 1 nM | 
14 | CC(=O)O[C@H]1C(=O)[C@@]2(C)[C@H]([C@H](OC(=O)c3ccccc3)[C@]3(O)C[C@H](OC(=O)[C@H](O)[C@@H](NC(=O)c4ccccc4)c4ccccc4)C(C)=C1C3(C)C)[C@]1(OC(C)=O)CO[C@@H]1C[C@@H]2O [taxol, paclitaxel, reference compound] |  |  | IC50 (Homo sapiens, HCT-116, HCT116 colony formation, 72 h drug incubation, Example 5, C-7 ester/C-10 hydroxy taxanes): 2.1 nM
15 | CC(=O)OC12COC1CC(O)C1(C)C(=O)C(OC(=O)c3cccs3)C3=C(C)C(OC(=O)C(O)C(NC(=O)OC(C)(C)C)c4cccs4)CC(O)(C(OC(=O)c4ccccc4)C21)C3(C)C (stereo not shown) [Compound 1900] |  | < 1 nM | 
16 | CC(=O)OC12COC1CC(O)C1(C)C(=O)C(OC(=O)c3cccs3)C3=C(C)C(OC(=O)C(O)C(NC(=O)OC(C)(C)C)c4ccoc4)CC(O)(C(OC(=O)c4ccccc4)C21)C3(C)C (stereo not shown) [Compound 1923] |  | < 1 nM | 
17 | C/C=C/C(=O)N[C@@H](c1ccoc1)[C@@H](O)C(=O)O[C@H]1C[C@@]2(O)[C@@H](OC(=O)c3ccccc3)C3[C@](C)(C(=O)[C@H](O)C(=C1C)C2(C)C)[C@@H](OC(=O)OC)C[C@H]1OC[C@@]31OC(C)=O (stereo partly shown) [Compound 4877] | < 1 nM |  | 

Row | Structure (SMILES) | IC50 [1] | IC50 [2] | further results
18 | CC(=O)O[C@@]12CO[C@@H]1C[C@H](O)[C@@]1(C)C(=O)[C@H](OC(=O)C3CC3)C3=C(C)[C@@H](OC(=O)[C@H](O)[C@@H](NC(=O)c4ccccc4)c4ccncc4)C[C@@](O)([C@@H](OC(=O)c4ccccc4)C12)C3(C)C (stereo partly shown) [Compound 2855] |  | < 1 nM | 
19 | COC(=O)O[C@H]1C[C@H]2OC[C@@]2(OC(C)=O)C2[C@H](OC(=O)c3ccccc3)[C@]3(O)C[C@H](OC(=O)[C@H](O)[C@@H](NC(=O)c4ccco4)c4cccs4)C(C)=C([C@@H](O)C(=O)[C@@]21C)C3(C)C (stereo partly shown) [Compound 4222] | < 1 nM |  | 
20 | CCC(=O)O[C@H]1C[C@H]2OC[C@@]2(OC(C)=O)C2[C@H](OC(=O)c3ccccc3)[C@]3(O)C[C@H](OC(=O)[C@H](O)[C@@H](NC(=O)c4ccccc4)c4ccco4)C(C)=C([C@@H](O)C(=O)[C@@]21C)C3(C)C (stereo partly shown) [Compound 4017] |  |  | IC50 [3]: < 10 nM
21 | CCOC(=O)O[C@H]1C(=O)[C@@]2(C)C([C@H](OC(=O)c3ccccc3)[C@]3(O)C[C@H](OC(=O)[C@H](O)[C@@H](NC(=O)OC(C)(C)C)c4ccco4)C(C)=C1C3(C)C)[C@]1(OC(C)=O)CO[C@@H]1C[C@@H]2O (stereo partly shown) [Compound 1822] | < 1 nM |  | 
22 | CCCC(=O)O[C@H]1C[C@H]2OC[C@@]2(OC(C)=O)C2[C@H](OC(=O)c3ccccc3)[C@]3(O)C[C@H](OC(=O)[C@H](O)[C@@H](NC(=O)C=C(C)C)c4cccs4)C(C)=C([C@@H](O)C(=O)[C@@]21C)C3(C)C (stereo partly shown) [Compound 4312] |  |  | IC50 [3]: < 1 nM
23 | CCC(=O)O[C@H]1C(=O)[C@@]2(C)C([C@H](OC(=O)c3ccccc3)[C@]3(O)C[C@H](OC(=O)[C@H](O)[C@@H](NC(=O)OC(C)(C)C)c4ccsc4)C(C)=C1C3(C)C)[C@]1(OC(C)=O)CO[C@@H]1C[C@@H]2O (stereo partly shown) [Compound 0562] |  | < 1 nM | 
24 | CCC(=O)O[C@H]1C[C@H]2OC[C@@]2(OC(C)=O)C2[C@H](OC(=O)c3ccccc3)[C@]3(O)C[C@H](OC(=O)[C@H](O)[C@@H](NC(=O)c4ccco4)c4ccco4)C(C)=C([C@@H](O)C(=O)[C@@]21C)C3(C)C (stereo partly shown) [Compound 3629] |  |  | IC50 [3]: < 1 nM
25 | CC(=O)O[C@@]12CO[C@@H]1C[C@H](O)[C@@]1(C)C(=O)[C@H](OC(=O)C3CC3)C3=C(C)[C@@H](OC(=O)[C@H](O)[C@@H](NC(=O)OC(C)(C)C)C4CC4)C[C@@](O)([C@@H](OC(=O)c4ccccc4)C12)C3(C)C (stereo partly shown) [Compound 0860] |  | < 1 nM | 
26 | CCOC(=O)O[C@H]1C[C@H]2OC[C@@]2(OC(C)=O)C2[C@H](OC(=O)c3ccccc3)[C@]3(O)C[C@H](OC(=O)[C@H](O)[C@@H](NC(=O)OCC(C)C)c4cccs4)C(C)=C([C@@H](O)C(=O)[C@@]21C)C3(C)C (stereo partly shown) [Compound 4363] | < 10 nM |  | 
27 | C/C=C/C(=O)N[C@@H](c1ccco1)[C@@H](O)C(=O)O[C@H]1C[C@@]2(O)[C@@H](OC(=O)c3ccccc3)C3[C@](C)(C(=O)[C@H](OC(=O)C4CC4)C(=C1C)C2(C)C)[C@@H](O)C[C@H]1OC[C@@]31OC(C)=O (stereo partly shown) [Compound 3971] |  | < 1 nM | 
28 | CCOC(=O)O[C@H]1C(=O)[C@@]2(C)C([C@H](OC(=O)c3ccccc3)[C@]3(O)C[C@H](OC(=O)[C@H](O)[C@H](C=C(C)C)NC(=O)OC(C)(C)C)C(C)=C1C3(C)C)[C@]1(OC(C)=O)CO[C@@H]1C[C@@H]2O (stereo partly shown) [Compound 1781] | < 1 nM |  | 
29 | CCOC(=O)O[C@H]1C[C@H]2OC[C@@]2(OC(C)=O)C2[C@H](OC(=O)c3ccccc3)[C@]3(O)C[C@H](OC(=O)[C@H](O)[C@@H](NC(=O)OCC(C)C)c4ccco4)C(C)=C([C@@H](O)C(=O)[C@@]21C)C3(C)C (stereo partly shown) [Compound 4696] | < 1 nM |  | 
30 | CC(=O)O[C@@]12CO[C@@H]1C[C@H](O)[C@@]1(C)C(=O)[C@H](OC(=O)C=C(C)C)C3=C(C)[C@@H](OC(=O)[C@H](O)[C@@H](NC(=O)OC(C)(C)C)c4ccccn4)C[C@@](O)([C@@H](OC(=O)c4ccccc4)C12)C3(C)C (stereo partly shown) [Compound 2464] |  | < 1 nM | 
31 | C/C=C/C(=O)N[C@@H](c1ccco1)[C@@H](O)C(=O)O[C@H]1C[C@@]2(O)[C@@H](OC(=O)c3ccccc3)C3[C@](C)(C(=O)[C@H](O)C(=C1C)C2(C)C)[C@@H](OC(=O)CC)C[C@H]1OC[C@@]31OC(C)=O (stereo partly shown) [Compound 3708] |  |  | IC50 [3]: < 1 nM
32 | CCC(=O)O[C@H]1C[C@H]2OC[C@@]2(OC(C)=O)C2[C@H](OC(=O)c3ccccc3)[C@]3(O)C[C@H](OC(=O)[C@H](O)[C@@H](NC(=O)OC(C)C)c4cccs4)C(C)=C([C@@H](O)C(=O)[C@@]21C)C3(C)C (stereo partly shown) [Compound 3082] |  |  | IC50 [3]: < 1 nM
33 | COC(=O)O[C@H]1C(=O)[C@@]2(C)C([C@H](OC(=O)c3ccccc3)[C@]3(O)C[C@H](OC(=O)[C@H](O)[C@@H](NC(=O)OC(C)(C)C)C4CCC4)C(C)=C1C3(C)C)[C@]1(OC(C)=O)CO[C@@H]1C[C@@H]2O (stereo partly shown) [Compound 2077] | < 10 nM |  | 
34 | COC(=O)O[C@H]1C(=O)[C@@]2(C)C([C@H](OC(=O)c3ccccc3)[C@]3(O)C[C@H](OC(=O)[C@H](O)[C@@H](NC(=O)OC(C)(C)C)C(C)C)C(C)=C1C3(C)C)[C@]1(OC(C)=O)CO[C@@H]1C[C@@H]2O (stereo partly shown) [Compound 2062] | < 10 nM |  | 
